From ChEMBL document CHEMBL4184249, “Structural development of tetrachlorophthalimides as liver X receptor β (LXRβ)-selective agonists with improved aqueous solubility” (Bioorg Med Chem Lett, 2018)
Values after ≈ are worked out from the molar mass of the structure shown. Active and inactive are the calls of the source. No cut-off for these calls is given here.

Legend:
[1] = molecular target: T1, Retinoic acid receptor gamma (Homo sapiens) (UniProt P13631); experiment: Agonist activity at GAL4-tagged RARgamma (unknown origin) expressed in HEK293 cells co-expressing CMX-beta-galactosidase at 0.3 to 30 uM incubated for 16 hrs by luciferase reporter gene assay; format: cell-based
T1 sequence (whole entry): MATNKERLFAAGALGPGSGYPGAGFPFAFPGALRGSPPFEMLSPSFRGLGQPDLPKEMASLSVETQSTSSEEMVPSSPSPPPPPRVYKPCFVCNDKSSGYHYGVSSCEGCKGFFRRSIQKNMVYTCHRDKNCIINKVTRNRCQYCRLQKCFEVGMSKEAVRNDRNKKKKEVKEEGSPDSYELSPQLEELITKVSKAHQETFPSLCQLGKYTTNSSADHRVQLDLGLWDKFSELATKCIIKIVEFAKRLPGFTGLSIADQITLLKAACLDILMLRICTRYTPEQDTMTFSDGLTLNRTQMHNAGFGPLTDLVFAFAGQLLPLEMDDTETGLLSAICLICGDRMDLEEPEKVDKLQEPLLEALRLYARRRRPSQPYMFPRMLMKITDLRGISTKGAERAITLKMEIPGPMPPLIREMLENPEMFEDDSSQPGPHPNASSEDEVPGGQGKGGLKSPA

[2] = molecular target: T2, Bile acid receptor (Homo sapiens) (UniProt Q96RI1); experiment: Agonist activity at GAL4-tagged FXR (unknown origin) expressed in HEK293 cells co-expressing CMX-beta-galactosidase at 0.3 to 30 uM incubated for 16 hrs by luciferase reporter gene assay; format: cell-based
T2 sequence (whole entry): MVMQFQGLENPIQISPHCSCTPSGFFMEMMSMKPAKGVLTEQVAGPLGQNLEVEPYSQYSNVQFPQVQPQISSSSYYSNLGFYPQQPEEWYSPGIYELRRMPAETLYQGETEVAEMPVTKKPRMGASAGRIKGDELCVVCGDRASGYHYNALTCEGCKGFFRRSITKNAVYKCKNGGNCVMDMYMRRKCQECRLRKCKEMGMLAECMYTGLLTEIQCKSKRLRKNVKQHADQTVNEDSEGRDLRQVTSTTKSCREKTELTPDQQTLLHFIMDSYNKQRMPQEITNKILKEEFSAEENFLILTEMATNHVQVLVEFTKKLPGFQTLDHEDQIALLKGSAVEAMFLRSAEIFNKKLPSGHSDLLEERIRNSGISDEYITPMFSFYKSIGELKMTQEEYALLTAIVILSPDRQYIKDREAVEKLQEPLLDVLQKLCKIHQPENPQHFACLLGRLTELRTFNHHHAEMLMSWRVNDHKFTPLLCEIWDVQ

[3] = molecular target: T3, Oxysterols receptor LXR-alpha (Homo sapiens) (UniProt Q13133); experiment: Agonist activity at LXRalpha ligand-binding domain (unknown origin) at 0.3 uM incubated for 1.5 hrs using fluorescein-labeled coactivator peptide by TR-FRET competitive binding assay relative to T0901317
T3 sequence (whole entry): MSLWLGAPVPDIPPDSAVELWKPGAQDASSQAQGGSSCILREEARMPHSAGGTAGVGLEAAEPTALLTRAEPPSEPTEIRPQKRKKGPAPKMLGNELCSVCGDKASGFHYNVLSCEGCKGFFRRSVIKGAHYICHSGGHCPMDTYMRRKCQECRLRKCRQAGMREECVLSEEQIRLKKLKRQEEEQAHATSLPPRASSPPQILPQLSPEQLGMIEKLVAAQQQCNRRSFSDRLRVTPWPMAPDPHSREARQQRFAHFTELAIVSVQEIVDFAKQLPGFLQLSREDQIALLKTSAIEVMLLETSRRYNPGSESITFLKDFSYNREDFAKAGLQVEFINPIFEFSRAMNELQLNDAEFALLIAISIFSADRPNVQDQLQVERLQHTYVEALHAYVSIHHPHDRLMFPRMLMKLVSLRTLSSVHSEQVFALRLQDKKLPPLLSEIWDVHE

[4] = molecular target: T4, Retinoic acid receptor RXR-beta (Homo sapiens) (UniProt P28702); experiment: Agonist activity at GAL4-tagged RXRbeta (unknown origin) expressed in HEK293 cells co-expressing CMX-beta-galactosidase at 0.3 to 30 uM incubated for 16 hrs by luciferase reporter gene assay; format: cell-based
T4 sequence (whole entry): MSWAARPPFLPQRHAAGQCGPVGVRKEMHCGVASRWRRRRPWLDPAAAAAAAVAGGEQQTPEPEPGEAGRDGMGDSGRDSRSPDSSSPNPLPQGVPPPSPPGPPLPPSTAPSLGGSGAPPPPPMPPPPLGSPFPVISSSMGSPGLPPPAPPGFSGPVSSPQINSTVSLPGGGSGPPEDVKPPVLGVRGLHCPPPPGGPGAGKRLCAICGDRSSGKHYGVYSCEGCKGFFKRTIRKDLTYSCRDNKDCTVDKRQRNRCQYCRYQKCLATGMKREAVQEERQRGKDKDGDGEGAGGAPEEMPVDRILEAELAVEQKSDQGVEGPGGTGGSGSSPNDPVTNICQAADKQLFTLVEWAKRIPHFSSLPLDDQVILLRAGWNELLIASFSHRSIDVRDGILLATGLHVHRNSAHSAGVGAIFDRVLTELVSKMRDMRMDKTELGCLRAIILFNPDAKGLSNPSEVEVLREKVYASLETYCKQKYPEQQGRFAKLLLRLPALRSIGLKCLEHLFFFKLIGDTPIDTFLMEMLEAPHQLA

[5] = Aqueous solubility of the compound in EtOH: 1/15 M phosphate buffer at pH 7.4 1:1 by HPLC method; format: physicochemical
[6] = molecular target: T5, Retinoic acid receptor alpha (Homo sapiens) (UniProt P10276); experiment: Agonist activity at GAL4-tagged RARalpha (unknown origin) expressed in HEK293 cells co-expressing CMX-beta-galactosidase at 0.3 to 30 uM incubated for 16 hrs by luciferase reporter gene assay; format: cell-based
T5 sequence (whole entry): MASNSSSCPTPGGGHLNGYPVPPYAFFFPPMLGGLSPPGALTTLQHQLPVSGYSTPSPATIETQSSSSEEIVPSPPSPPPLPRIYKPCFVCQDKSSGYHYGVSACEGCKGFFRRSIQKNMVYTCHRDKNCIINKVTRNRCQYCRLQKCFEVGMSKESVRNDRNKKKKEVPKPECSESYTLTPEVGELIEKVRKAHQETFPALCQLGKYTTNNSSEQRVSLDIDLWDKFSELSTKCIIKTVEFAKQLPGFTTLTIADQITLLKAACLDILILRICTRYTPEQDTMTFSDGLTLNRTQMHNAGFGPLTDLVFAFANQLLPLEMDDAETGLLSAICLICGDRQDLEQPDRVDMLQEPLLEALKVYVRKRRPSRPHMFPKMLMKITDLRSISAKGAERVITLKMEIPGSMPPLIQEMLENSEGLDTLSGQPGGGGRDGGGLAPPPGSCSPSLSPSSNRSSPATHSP

Activity [1]: inactive
Efficacy [2]: 9%
Efficacy [3]: 6%
Activity [4]: inactive
solubility [5]: 0.015 µg/mL (≈ 0.032 µM)
Efficacy [6]: 6%
SMILES: O=C1c2c(Cl)c(Cl)c(Cl)c(Cl)c2C(=O)N1c1ccccc1/C=C/c1cccs1
